The source of these data is patent US12478624B2, “Heterocyclic derivatives, pharmaceutical compositions and their use in the treatment or amelioration of cancer” (Tolremo Therapeutics AG, priority 2019, dated 2025).

In one test the test system is OPM-2. The test can be described thus: Assay 2: multiple myeloma cellular efficacy, PrestoBlue cell proliferation/survival. The test is classed as cell-based. The note with it: Homo sapiens, 96 h, OPM-2 cells, 4 days. As to the method: Multiple Myeloma Cellular Efficacy:
10000 OPM-2 (ACC50; DSMZ) were plated into wells of a 384 well plate (Greiner 781090). Cells were treated for 4 days with a dose range of compound or vehicle. At the end of the experiment cells were stained directly with PrestoBlue (ThermoFisher Scietific; A13262) for 2 hours at 37° C. in a humidified incubator according to manufactor's instruction. To assess the relative cell number the PrestoBlue signal was measured using either a TecanM1000Pro reader or a Tecan Sparks reader following the manufactor's instructions. Background (no cells) values were subtracted and set in relation to the vehicle control. To assess the EC50 of each compound the relative fluorescence value was plotted against the compound concentration after log transformation. Data were fitted in a nonlinear manner with a variable slope (four parameters) using graphpad prism software. Cellular efficacy of compounds was evaluated in the multiple myeloma cell line OPM-2 using the cell proliferation/survival assay PrestoBlue. EC50 values are classified as indicated below.

For another test, the system named is A375 cells. Briefly: Assay 1: A375 cells treated with S1152, S1008 and compound, immunofluorescence (sc-365823) signal. In kind it is cell-based. The note with it: 1 μM S1152 + 0.5 μM S1008, one day. The procedure:
One thousand four hundred A375 cells were seeded in each well of a 384 well microplate. One day later they were treated with 1 μM S1152 (Selleckchem) in dimethyl sulfoxide, 0.5 μM S1008 (Selleckchem) and dose ranges of invention compounds for one day in Dulbecco's Modified Eagle's Medium supplemented with 10% fetal calf serum and 2 mM (2S)-2-amino-4-carbamoylbutanoic acid. Wells were incubated with 4% polyoxymethylene (Sigma Aldrich 158127) at ambient temperature. […] After one minute phosphate-buffered saline was replaced with 0.2% polyethylene glycol octylphenyl ether in phosphate-buffered saline. […] 1% aminoethanoic acid in phosphate-buffered saline was added for ten minutes at ambient temperature. […] After one hour at ambient temperature in the dark, signal in wells was measured with a Acumen Cellista. 3,8-Diamino-5-[3-(diethylmethylammonio)propyl]-6-phenylphenanthridinium diiodide-positive objects were defined in FL3 (565-600 nm) with a perimeter between 50-800 μm and a total intensity of 10000-1000000 FLU. Signal in FL2 (500-530 nm) was measured in defined objects. A normalized ratio of total In FL2 over total In FL3 staining was log transformed. A non-linear regression (variable slope, 4 parameters) was used to calculate EC50 values using GraphPad Prism (Version 7.0d).
In an alternative procedure, assay 1 has been affected by changing the counteratain. […] Cells were incubated with 0.5 μg/ml 2-(4-Amidinophenyl)-6-indolecarbamidine dihydrochloride, 4′,6-Diamidino-2-phenylindole dihydrochloride (Sigma D9542) in phosphate-buffered saline for at least 30 minutes at ambient temperature in the dark. A Celigo Imager (Nexcelom) was used to acquire images in the blue and green channel. The blue channel was used as a mask to define the area for the green signal. The average integrated intensity of the green signal was normalized and a non-linear regression (variable slope, 4 parameter) was used to calculate the EC50 values using GraphPad Prism (Version 8.4)

Usually EC50 stands for the concentration needed to bring the measured effect to its halfway point. Turning to `CC(=O)N1C[C@H](c2nc(Nc3ccnc(C)c3)cc(-c3cncc(C)n3)n2)CC[C@@H]1C` [Compound 00131, 1-((2S,5R)-2-methyl-5-(4-(6-methylpyrazin-2-yl)-6-((2-methylpyridin-4-yl)amino)pyrimidin-2-yl)piperidin-1-yl)ethan-1-one], the EC50 in the test on OPM-2 and in the test on A375 cells was under 200 nM in each case. `CC(=O)N1C[C@H](c2nc(Nc3cc(C)nc(C(F)F)c3)cc(-c3cccnc3)n2)CC[C@@H]1C` [Compound 00144, 1-((2S,5R)-5-(4-((2-(difluoromethyl)-6-methylpyridin-4-yl)amino)-6-(pyridin-3-yl)pyrimidin-2-yl)-2-methylpiperidin-1-yl)ethan-1-one]: the EC50 in the test on OPM-2 and with A375 cells was under 200 nM in each case. As to `CC(=O)N1C[C@H](c2nc(Nc3ccc4oc(C)nc4c3)cc(-c3cccnc3)n2)CC[C@@H]1C` [Compound 00147, 1-((2S,5R)-2-methyl-5-(4-((2-methylbenzo[d]oxazol-5-yl)amino)-6-(pyridin-3-yl)pyrimidin-2-yl)piperidin-1-yl)ethan-1-one], the half-maximal effective concentration (EC50) in the test with OPM-2 and with A375 cells was under 200 nM each time.

`CC(=O)N1C[C@H](c2nc(Nc3cc(C)nc(-c4cnn(C)c4)c3)cc(-c3cnccn3)n2)CC[C@@H]1C` [Compound 00154, 1-((2S,5R)-2-methyl-5-(4-((2-methyl-6-(1-methyl-1H-pyrazol-4-yl)pyridin-4-yl)amino)-6-(pyrazin2-yl)pyrimidin-2-yl)piperidin-1-yl)ethan-1-one]: the values for the EC50 with OPM-2 and in the test with A375 cells were 200 to 1000 nM and under 200 nM, respectively. With `CC(=O)Nc1cccc(Nc2cc(-c3cncc4c3ccn4C)nc([C@@H]3CC[C@H](C)N(C(C)=O)C3)n2)c1` [Compound 00085, N-(3-((2-((3R,6S)-1-acetyl-6-methylpiperidin-3-yl)-6-(1-methyl-1H-pyrrolo[2,3-c]pyridin-4-yl)pyrimidin-4-yl)amino)phenyl)acetamide], the EC50 with OPM-2 and with A375 cells was under 200 nM each time.

`COc1cncc(-c2cc(Nc3cncc(C)c3)nc([C@@H]3CC[C@H](C)N(C(C)=O)C3)n2)c1` [Compound 00132, 1-((2S,5R)-5-(4-(5-methoxypyridin-3-yl)-6-((5-methylpyridin-3-yl)amino)pyrimidin-2-yl)-2-methylpiperidin-1-yl)ethan-1-one]: the EC50 in the test on OPM-2 and with A375 cells was under 200 nM throughout. Take `CC(=O)N1C[C@H](c2nc(Nc3cc(C)nc(-c4cnn(C)c4)c3)cc(-c3cccnc3)n2)CC[C@@H]1C` [Compound 00161, 1-((2S,5R)-2-methyl-5-(4-((2-methyl-6-(1-methyl-1H-pyrazol-4-yl)pyridin-4-yl)amino)-6-(pyridin-3-yl)pyrimidin-2-yl)piperidin-1-yl)ethan-1-one]: the half-maximal effective concentration (EC50) in the test on OPM-2 and in the test on A375 cells was under 200 nM each time. In the case of `CC(=O)N1C[C@H](c2nc(Nc3ccnc(OC(C)C)c3)cc(-c3cnccn3)n2)CC[C@@H]1C` [Compound 00155, 1-((2S,5R)-5-(4-((2-isopropoxypyridin-4-yl)amino)-6-(pyrazin-2-yl)pyrimidin-2-yl)-2-methylpiperidin-1-yl)ethan-1-one], the EC50 in the test with OPM-2 and in the test with A375 cells was 200 to 1000 nM in each case. Take `CC(=O)N1C[C@H](c2nc(Nc3cccc(F)c3)cc(-c3cccnc3)n2)CC[C@@H]1C` [Compound 00080, 1-((2S,5R)-5-(4-((3-fluorophenyl)amino)-6-(pyridin-3-yl)pyrimidin-2-yl)-2-methylpiperidin-1-yl)ethan-1-one]: the values for the EC50 in the test on OPM-2 and in the test on A375 cells were 200 to 1000 nM and under 200 nM, respectively. Regarding `CC(=O)N1C[C@H](c2nc(Nc3ccnc(C(F)F)c3)cc(-c3cnccn3)n2)CC[C@@H]1C` [Compound 00130, 1-((2S,5R)-5-(4-((2-(difluoromethyl)pyridin-4-yl)amino)-6-(pyrazin-2-yl)pyrimidin-2-yl)-2-methylpiperidin-1-yl)ethan-1-one], the EC50 with OPM-2 and with A375 cells was under 200 nM throughout.

Take `CC(=O)Nc1cc(F)cc(Nc2cc(-c3cccnc3)nc([C@@H]3CC[C@H](C)N(C(C)=O)C3)n2)c1` [Compound 00047, N-(3-((2-((3R,6S)-1-acetyl-6-methylpiperidin-3-yl)-6-(pyridin-3-yl)pyrimidin-4-yl)amino)-5-fluorophenyl)acetamide]: the EC50 in the test on OPM-2 and in the test with A375 cells was under 200 nM in each case. Turning to `CC(=O)Nc1cc(Nc2cc(-c3cnccn3)nc([C@@H]3CC[C@H](C)N(C(C)=O)C3)n2)cc(C(F)F)c1` [Compound 00059, N-(3-((2-((3R,6S)-1-acetyl-6-methylpiperidin-3-yl)-6-(pyrazin-2-yl)pyrimidin-4-yl)amino)-5-(difluoromethyl)phenyl)acetamide], the EC50 in the test with OPM-2 and in the test on A375 cells was under 200 nM throughout. As to `CC(=O)Nc1cc(Nc2cc(-c3cccnc3)nc([C@@H]3CC[C@H](C)N(C(C)=O)C3)n2)ccn1` [Compound 00136, N-(4-((2-((3R,6S)-1-acetyl-6-methylpiperidin-3-yl)-6-(pyridin-3-yl)pyrimidin-4-yl)amino)pyridin-2-yl)acetamide], the EC50 in the test on OPM-2 and in the test with A375 cells was 1000 to 10000 nM each time. In the case of `CC(=O)Nc1cc(Nc2cc(-c3cnccn3)nc([C@@H]3CC[C@H](C)N(C(C)=O)C3)n2)ccn1` [Compound 00137, N-(4-((2-((3R,6S)-1-acetyl-6-methylpiperidin-3-yl)-6-(pyrazin-2-yl)pyrimidin-4-yl)amino)pyridin-2-yl)acetamide], the figures for the EC50 with OPM-2 and in the test with A375 cells were 1000 to 10000 nM and 200 to 1000 nM, respectively. In the case of `CC(=O)N1C[C@H](c2nc(Nc3cc(F)cc(-c4cnn(C)c4)c3)cc(-c3cncc(N4C[C@@H]5C[C@H]4CO5)c3)n2)CC[C@@H]1C` [Compound 00090, 1-((2S,5R)-5-(4-(5-((1S,4S)-2-oxa-5-azabicyclo-[2.2.1]heptan-5-yl)pyridin-3-yl)-6-((3-fluoro-5-(1-methyl-1H-pyrazol-4-yl)phenyl)amino)pyrimidin-2-yl)-2-methylpiperidin-1-yl)ethan-1-one], in the test with OPM-2, the EC50 was under 200 nM. For `CC(=O)N1C[C@H](c2nc(Nc3ccnc(C)c3)cc(-c3cncc4c3ccn4C)n2)CC[C@@H]1C` [Compound 00116, 1-((2S,5R)-2-methyl-5-(4-(1-methyl-1/7-pyrrolo[2,3-c]pyridin4-yl)-6-((2-methylpyridin-4-yl)amino)pyrimidin-2-yl)piperidin1-yl)ethan-1-one], the EC50 with OPM-2 and in the test with A375 cells was under 200 nM throughout. With `CC(=O)N1C[C@H](c2nc(Nc3cccc(NC(=O)C4CC4)c3)cc(-c3cccnc3)n2)CC[C@@H]1C` [Compound 00089, N-(3-((2-((3R,6S)-1-acetyl-6-methylpiperidin-3-yl)-6-(pyridin3-yl)pyrimidin-4-yl)amino)phenyl)-cyclopropanecarboxamide], the EC50 in the test on OPM-2 and in the test with A375 cells was under 200 nM in each case. For the compound `COc1cc(Nc2cc(-c3cnccn3)nc([C@@H]3CC[C@H](C)N(C(C)=O)C3)n2)cc(C)n1` [Compound 00150, 1-((2S,5R)-5-(4-((2-methoxy-6-methylpyridin-4-yl)amino)-6-(pyrazin-2-yl)pyrimidin-2-yl)-2-methylpiperidin-1-yl)ethan-1-one], the EC50 in the test on OPM-2 and in the test with A375 cells was under 200 nM throughout.

In turn, `COc1cncc(-c2cc(Nc3cccc(F)c3)nc([C@H]3CC[C@@H](C)N(C(C)=O)C3)n2)c1` [Compound 00003] had an EC50 in the test with OPM-2 of over 10000 nM. As for `CC(=O)N1C[C@H](c2nc(Nc3ccc4c(=O)[nH]ccc4c3)cc(-c3cccnc3)n2)CC[C@@H]1C` [Compound 00035, 6-((2-((3R,6S)-1-acetyl-6-methylpiperidin-3-yl)-6-(pyridin-3-yl)pyrimidin-4-yl)amino)isoquinolin-1(2H)-one], the EC50 in the test on A375 cells was under 200 nM. Turning to `COc1cncc(-c2cc(Nc3cccc(Cl)c3)nc([C@@H]3CC[C@@H](C)N(C(C)=O)C3)n2)c1` (racemic) [Compound 00017, (+/−)-trans-1-(5-(4-((3-chlorophenyl)amino)-6-(5-methoxypyridin-3-yl)pyrimidin-2-yl)-2-methylpiperidin-1-yl)ethan-1-one], in the test on A375 cells (Homo sapiens, A-375, 24 h), the EC50 is 1000 to 10000 nM.
